Reference: patent EP1290011B1 (Oncopeptides AB, priority 2000, dated 2001)
Structures can show the parent of a compound that is named as a salt.

Tests used:
RPMI 8226S = experiment: FMCA comparing J1 and AcJ1; assay type: cell-based; settings: RPMI 8226S cell line
Procedure: (§1) The fluorometric microculture cytotoxicity assay (FMCA) (Larsson, R., et al- 1992: Int J Cancer, 50, 177-185) was used to evaluate the compounds. Briefly, 96-well microtiter plates (NUNC, Roskilde, Denmark) are prepared with 20 µl drug solution at ten times the desired concentration and stored for up to two months at -70°C. In general the substances are first dissolved in absolute or acidic ethanol to concentrations of 4.0 to 8.2 mM and further diluted with sterile water or sterile phosphate buffered saline (PBS, Sigma chemicals). All dilutions with water are made directly before the experiments to minimise the influence of mustard hydrolysis. […] At day zero of the experiment 180 µl of cell suspension of adequate concentration is added to the wells of the thawed plate, six wells serve as controls (cell suspension only) and six wells as blanks (cell medium only). After 72 hours incubation the cells are washed once with PBS, and 100 µl of fluorescein diacetate (10 µg/ml) in a physiological buffer is added. After another 45 min the generated fluorescence (ex 485 nm; em 528 nm) is measured in a 96-well scanning fluorometer (Fluoroscan II, Labsystems Oy, Helsinki, Finland). […]

U-937 = experiment: FMCA comparing J1 and AcJ1; assay type: cell-based; settings: U-937 cell line
Procedure: as §1

sarcoma 45 = settings: rat, in vivo; cited from earlier work
[1] = tested on: fresh human tumour specimens; experiment: FMCA cytotoxic activity in 27 fresh human tumour specimens (Figure 2); assay type: cell-based; settings: 27 human tumour samples, 14 hematological and 13 solid, comparative statement
CEM/S = experiment: cells; assay type: cell-based, human; settings: CEM/S; 72 hours incubation; read-out: IC50
CEM/R = experiment: cells; assay type: cell-based, human; settings: CEM/R; 72 hours incubation; read-out: IC50
ACHN = experiment: cells; assay type: cell-based, human; settings: ACHN, primary resistant renal carcinoma; 72 hours incubation; read-out: IC50
H69 = experiment: cells; assay type: cell-based, human; settings: H69, small cell lung cancer; 72 hours incubation; read-out: IC50
H69AR = experiment: cells; assay type: cell-based, human; settings: H69AR, doxorubicin resistance; 72 hours incubation; read-out: IC50
8226S = experiment: cells; assay type: cell-based, human; settings: 8226S, myeloma; 72 hours incubation; read-out: IC50
8226Dox40 = experiment: cells; assay type: cell-based, human; settings: 8226Dox40, doxorubicin resistance; 72 hours incubation; read-out: IC50
8226LR5 = experiment: cells; assay type: cell-based, human; settings: 8226LR5, melphalan resistance; 72 hours incubation; read-out: IC50
U937gtb = experiment: cells; assay type: cell-based, human; settings: U937gtb, lymphoma; 72 hours incubation; read-out: IC50
U937vcr = experiment: cells; assay type: cell-based, human; settings: U937vcr, vincristine resistance; 72 hours incubation; read-out: IC50
[2] = tested on: panel of ten human tumour cell lines; experiment: cells; assay type: cell-based; settings: mean over the ten cell lines; read-out: MEAN IC50
Ovarian carcinoma = experiment: Cytotoxic activity in different tumour models; assay type: cell-based, human; settings: Number 8
Breast cancer = experiment: Cytotoxic activity in different tumour models; assay type: cell-based, human; settings: Number 4
NSC Lung cancer = experiment: Cytotoxic activity in different tumour models; assay type: cell-based, human; settings: Number 8
Prostate cancer = experiment: Cytotoxic activity in different tumour models; assay type: cell-based, human; settings: Number 1
Corpus cancer = experiment: Cytotoxic activity in different tumour models; assay type: cell-based, human; settings: Number 4
Adeno-carcinoma = experiment: Cytotoxic activity in different tumour models; assay type: cell-based, human; settings: Number 5
[3] = tested on: PHTC samples from 9 patients with hematological and 18 patients with solid tumours; experiment: Circumvention of melphalan resistance: FMCA classification of PHTC samples as LDR, IDR, EDR; assay type: cell-based, human; settings: tested at 4 µM
[4] = tested on: hematological fresh human tumour specimens (PHTC); settings: 0.66 µM; n=42; 4320 min
[5] = tested on: solid tumour fresh human tumour specimens (PHTC); settings: 0.66 µM; n=22; 4320 min
RPMI 8322 melanoma cells = settings: compared with the other peptides of PTC; cited from earlier work
Solid tumours (PHTC) = experiment: FMCA in PHTC cultures, Table 4, solid; settings: 4 µM; n=12-20; 4320 min
[6] = tested on: primary cultures of human tumor cells from patients (PHTC), Total; experiment: FMCA in PHTC cultures, Table 4, total; settings: 4 µM; n=19-31; 4320 min
[7] = tested on: Hematological tumours (PHTC); experiment: FMCA in PHTC cultures, Table 4, hematological; settings: 4 µM; n=7-11; 4320 min
[8] = tested on: oxidative phosphorylation in mitochondria from rat liver homogenates and Jensen sarcoma cells; settings: cited from earlier work

Compound: CCOC(=O)[C@H](Cc1ccc(F)cc1)NC(=O)[C@H](Cc1ccc(N(CCCl)CCCl)cc1)NC(C)=O [AcJ1, N-Acetyl-L-melphalanyl-L-p-fluorophenylalanine ethyl ester]
- IC50 (RPMI 8226S): 2.9 µM
- IC50 (U-937): 0.61 µM

Compound: CCOC(=O)[C@H](Cc1ccc(O)cc1)NC(=O)[C@H](Cc1ccc(N(CCCl)CCCl)cc1)NC(C)=O [astyron, N-acetyl-L-melphalanyl-L-tyrosine ethyl ester]
- sarcoma 45 growth (sarcoma 45): inhibited sarcoma 45 growth

Compound: CCOC(=O)[C@H](Cc1ccc(F)cc1)NC(=O)[C@H](Cc1cccc(N(CCCl)CCCl)c1)NC(=O)[C@@H]1CCCN1 [Example P2, L-prolyl-m-L-sarcolysyl-p-L-fluorophenylalanine ethyl ester hydrochloride, reference compound]
- IC50s (comparison) [1]: more active than melphalan
- IC50 (CEM/S): 0.94 µM
- IC50 (CEM/R): 0.63 µM
- IC50 (ACHN): 4.59 µM
- IC50 (H69): 4.59 µM
- IC50 (H69AR): 4.27 µM
- IC50 (8226S): 5.11 µM
- IC50 (8226Dox40): 5.43 µM
- IC50 (8226LR5): 7.4 µM
- IC50 (U937gtb): 1.78 µM
- IC50 (U937vcr): 1.79 µM
- IC50 [2]: 3.35 µM
- Median response at 4.0 µM >50% reduction in tumour cell survival (Ovarian carcinoma): No
- Median response at 4.0 µM >50% reduction in tumour cell survival (Breast cancer): No
- Median response at 4.0 µM >50% reduction in tumour cell survival (NSC Lung cancer): No
- Median response at 4.0 µM >50% reduction in tumour cell survival (Prostate cancer): No
- Median response at 4.0 µM >50% reduction in tumour cell survival (Corpus cancer): No
- Median response at 4.0 µM >50% reduction in tumour cell survival (Adeno-carcinoma): No
- Number of samples EDR ([3]; Extreme drug resistance): 1
- Number of samples (%) EDR ([3]; Extreme drug resistance, percent of samples): 5%
- Number of samples IDR ([3]; Intermediate drug resistance): 4
- Number of samples (%) IDR ([3]; Intermediate drug resistance, percent of samples): 21%
- Number of samples LDR ([3]; Low drug resistance): 14
- Number of samples (%) LDR ([3]; Low drug resistance, percent of samples): 74%
- Tumour cell survival index % Hematological [4]: 34.7%
- Tumour cell survival index % Solid [5]: 86.0%
- cytotoxicity (RPMI 8322 melanoma cells): more toxic to RPMI 8322 melanoma cells than any of the other peptides
- Tumour cell survival index (%) Solid tumours (Solid tumours (PHTC)): 68.9%
- Tumour cell survival index (%) Total [6]: 46.1%
- Tumour cell survival index (%) Hematological tumours [7]: 7%

Compound: CC(C)[C@H](NC(=O)[C@@H](N)Cc1ccc(N(CCCl)CCCl)cc1)C(=O)O [L-melphalanyl-L-valine]
- oxidative phosphorylation [8]: disrupted oxidative phosphorylation
